Laboratory results taken from publication PMC4595804, “A strategy to discover decoy chemokine ligands with an anti-inflammatory activity” (Scientific Reports, 2015).

Key:
[1] = system: HUT78 T cells; experiment: WST-1 metabolic activity assay; format: cell-based, human; conditions: 30 μM (highest concentration), 72 h
From the text: WST-1 metabolic activity assay
The colorimetric WST-1 cell metabolic assay (Ozyme) was used to assess the cytotoxic effect of chemokine neutraligands. This is a cell viability test based on the enzymatic cleavage by the mitochondrial succinate-tetrazolium reductase of a tetrazolium salt, WST-1 (4-[3-(4-Iodophenyl)-2-(4-nitrophenyl)-2H-5-tetrazolio]-1,3 benzene disulfonate), into a water- […]
soluble formazan dye which can be detected by absorbance at 420-480nm. HUT78 T cells (or HaCat cells) were seeded on 24-well plates (200,000 cells per well) and were incubated […]
concentration ≤1% on cells). The background control was reserved as one well containing the culture medium only. The plates were incubated for 72h at 37°C. Three days later, the medium containing the neutraligands was removed, and WST-1 reagent (1:10 final dilution) (Ozyme) was added to each well for a 2h incubation at 37°C as the manufacturer’s recommendation. The plates were shaken and absorbance was measured at 450nm (reference wavelength 690nm) against the background control, using a multiwell plate reader (EnVision, Perkin Elmer). Assays were performed as three independent replicates. […]
(Heidelberg, Germany) and was cultured in Dulbecco’s Modified Eagle Medium (DMEM) (Invitrogen) supplemented with 10% fetal bovine serum (FBS) (Gibco-BRL), 100U/ml penicillin (Invitrogen), 100µg/ml streptomycin (Invitrogen) and 2mM L-glutamine (Invitrogen) at 37°C and 5% CO 2. The cells received fresh medium every other day and were subcultured every 10 days. HaCat cells were seeded in a 24-well plate (ESSEN Bioscience) at a density of 200,000 cells per well, and were allowed to grow until confluence. A scratch wound along the cell monolayer was created using the Essen woundmakerTM. Cells were washed twice with PBS to remove detached cells, and were treated with serum-free culture medium in the absence or presence of 100ng/ml chemokine (CCL22 or CCL17) preincubated with DMSO or […]
The molecules were also tested alone […]
without the chemokine. […] One […]
µg/ml of mitomycin C (Sigma-Aldrich) was added throughout the experiment in order to block cell proliferation. Once treated, the cells were immediately placed into the IncuCyteTM live-cell imaging, and the cell migration onto the wounded area was examined for 72h. Phase-contrast images acquired for each sample were captured every 2h (objective lens x10), and […]

[2] = target: T1, CCL5 (Homo sapiens, UniProt P13501); experiment: Selectivity, neutraligand protocol, EGFP-CCR5+ HEK cells; format: cell-based; conditions: 10 μM compound, 5 nM CCL5, EGFP-CCR5+ HEK cells
T1 construct: (His)6; made in house; host or cells: E. coli BL21 (DE3)
Method: Figure 6 (a) Selectivity of CCL17 and CCL22 neutraligands towards 10 chemokines according to the “neutraligand protocol”. […] Each column represents the mean (block) ± SD (bars) of n = 3 experiments performed in triplicate. *p < 0.05; **p < 0.01; ***p < 0.005 as compared to chemokine + DMSO. (b) Chemokine neutraligands inhibited CCR4 endocytosis induced by CCL22 or CCL17. EGFP-CCR4^+ HEK cells were incubated for 30 min with DMSO or chemokine (100 nM CCL22 or CCL17) in the presence or absence of test compounds. […] Cell surface EGFP-tagged CCR4 receptors were measured by EGFP antibody labeling and flow cytometry analysis. CCR4 internalization was expressed as a percentage of total receptor surface expression calculated using control cells incubated with DMSO (100%). Each column represents the mean (block) ± SD (bars) of n = 3 experiments performed in triplicate. *p < 0.05; **p < 0.01; ***p < 0.005 as compared to chemokine alone. (c,d) Inhibition of CCL17 and CCL22- induced CCR4^+HUT78 T cell chemotaxis by neutraligands. […] The number of migrating cells induced by a chemokine alone was set at 100% migration. The number of migrating cells in the presence of chemokine and compounds were expressed as the corresponding percentages. Results were analyzed by fitting the experimental curves (% of migrating cells vs log compound concentration) using the Kaleidagraph software program, and the corresponding IC50 values were calculated. Means and SD values of triplicates were plotted.
Human cDNAs encoding CCR4 and CXCR3 receptors were cloned in pIRES plasmid (Clontech) while cDNAs encoding CCR2, CCR5, CXCR2 and CXCR4 receptors were cloned in pCEP4 vector (Life technologies). The receptors are cloned in frame with a signal peptide fused to enhanced green fluorescent protein (EGFP) as described previously. All plasmid constructs were fully sequenced prior to transfections. Human Kidney Embryonic HEK-293 cells (ATCC) were maintained in Minimal Essential Medium (MEM, Invitrogen) supplemented with 10% FCS, penicillin (100 U/ml), streptomycin (100 μg/ml) and L-glutamine (2 mM) (Invitrogen) at 37 °C and 5% CO2. The cells were transfected with pIRES EGFP-CCR4 plasmid using calcium phosphate precipitation method. Stably EGFP-CCR4^+ HEK cells were selected for 5 weeks with geneticin (G-418, 600μg/ml), and resulting cell clones were checked by fluorescence microscopy and FACS analysis. HEK cells stably expressing human CXCR2, CXCR3, CXCR4, CCR5 and CCR2 were generated as described previously.
Dye loaded cells were placed in the FlexStation 3 (Molecular Devices). Calcium mobilization was measured at 401 and 475 nm emission fluorescence after excitation at 355 nm. For the primary screening, the ligands (50μl of chemokine mixed with DMSO or test compounds) were added to the cells at 40 s, followed by digitonin addition (50μl) at 100 s to the cells. Molecules were screened at a final concentration of 2μg/ml with 5 nM CCL17 or CCL22. […] Raw fluorescence data (at 401 and 475 nm) were exported and the ratio 401/475 was calculated. The calcium response values (height of peak response over baseline) were determined. Hits were selected by comparing the response amplitude at the time of the chemokine addition ± test compound. The Z’ factor[29] was calculated according to the following equation: Z’ = 1-(3SD+ + 3SD−)/|Ave+ − Ave−|, where SD+ and Ave+ are respectively the standard deviation and the mean value of the positive controls (chemokine + DMSO), while SD− and Ave− are respectively the standard deviation and the mean value of the negative controls (HEPES-BSA (0.1%) mixed with DMSO, or cells mixed with C-021). Hit molecules were confirmed by performing concentration-response curves and their half maximal inhibitory concentration (IC50) values were calculated using the Kaleidagraph software.

T1 sequence (P13501 24-91): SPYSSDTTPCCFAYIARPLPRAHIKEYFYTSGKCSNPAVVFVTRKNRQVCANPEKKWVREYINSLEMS

| Structure (SMILES) | cytotoxic activity on HUT78 T cells (metabolic activity vs control non-treated cells) [1] | effect on calcium responses induced by CCL5 [2] |
| --- | --- | --- |
| O=C(OCC(O)CO)c1ccccc1O (stereo not shown) [GPN136, 2,3-dihydroxypropyl 2-hydroxybenzoate] | no cytotoxic activity | no effect |
| CC(C)=CCn1cnc2c1c(=O)n(C)c(=O)n2C [GPN279, 1,3-dimethyl-7-(3-methylbut-2-enyl)-1H-purine-2,6(3H, 7H)-dione] | no cytotoxic activity | no effect |
